Test results taken from patent US12649751B2 (Arcus Biosciences, Inc., priority 2022, dated 2026).

molecular target: HPK1 (Homo sapiens, UniProt Q92918); experiment: HPK1 Biochemical Assay (ADP-Glo luminescence; low ATP 10 μM or high ATP 200 μM); details: 2 nM HPK1, 10 μM ATP; read-out: Biochemical Potency (low ATP)
Sequence (Q92918 whole entry, species assumed): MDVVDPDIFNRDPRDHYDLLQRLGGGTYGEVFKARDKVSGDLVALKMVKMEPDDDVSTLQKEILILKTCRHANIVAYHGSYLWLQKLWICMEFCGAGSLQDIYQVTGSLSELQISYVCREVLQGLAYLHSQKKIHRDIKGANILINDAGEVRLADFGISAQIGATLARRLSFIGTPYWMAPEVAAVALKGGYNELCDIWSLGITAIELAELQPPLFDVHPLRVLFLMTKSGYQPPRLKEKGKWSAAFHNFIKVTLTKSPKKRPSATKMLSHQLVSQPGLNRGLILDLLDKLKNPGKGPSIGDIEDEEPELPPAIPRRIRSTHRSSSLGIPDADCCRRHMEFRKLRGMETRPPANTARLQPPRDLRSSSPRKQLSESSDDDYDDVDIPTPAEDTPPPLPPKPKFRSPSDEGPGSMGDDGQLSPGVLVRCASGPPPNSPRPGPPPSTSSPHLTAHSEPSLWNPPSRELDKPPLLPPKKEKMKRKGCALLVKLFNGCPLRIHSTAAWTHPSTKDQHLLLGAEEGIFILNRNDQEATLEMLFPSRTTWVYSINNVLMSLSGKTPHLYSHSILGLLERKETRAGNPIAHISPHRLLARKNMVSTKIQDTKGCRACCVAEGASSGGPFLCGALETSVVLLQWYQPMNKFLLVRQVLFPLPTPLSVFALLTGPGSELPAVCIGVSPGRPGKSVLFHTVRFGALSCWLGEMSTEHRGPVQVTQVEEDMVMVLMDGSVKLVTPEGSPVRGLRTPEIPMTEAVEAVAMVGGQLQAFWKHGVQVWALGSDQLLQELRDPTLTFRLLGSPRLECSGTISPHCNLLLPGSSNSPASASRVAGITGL

Row | Structure (SMILES) | IC50 [nM]
1 | Cc1ccncc1-c1nc2cc(Nc3ccc(C)c(O[C@H]4CCNC4)n3)ncc2s1 [Example 173, 5-Methyl-N-[2-(4-methylpyridin-3-yl)-[1,3]thiazolo[5,4-c]pyridin-6-yl]-6-[(3S)-pyrrolidin-3-yloxy]pyridin-2-amine] | < 100
2 | Cc1cccnc1-c1nc2cc(Nc3cccc(N4CCN5CCC[C@H]5C4)n3)ncc2s1 [Example 113, 6-[(8aS)—Octahydropyrrolo[1,2-a]pyrazin-2-yl]-N-[2-(3-methylpyridin-2-yl)-[1,3]thiazolo[5,4-c]pyridin-6-yl]pyridin-2-amine] | < 100
3 | Cc1cccnc1-c1nc2cc(Nc3ccc(C(C)C)c(CN4CCCC4)n3)ncc2s1 [Example 226, N-[2-(3-Methylpyridin-2-yl)-[1,3]thiazolo[5,4-c]pyridin-6-yl]-5-(propan-2-yl)-6-[(pyrrolidin-1-yl)methyl]pyridin-2-amine] | < 100
4 | Cc1cccnc1-c1nc2cc(Nc3cccc(N4CC5CCC(C4)N5C)n3)ncc2s1 [Example 107, 6-{8-Methyl-3,8-diazabicyclo[3.2.1]octan-3-yl}-N-[2-(3-methylpyridin-2-yl)-[1,3]thiazolo[5,4-c]pyridin-6-yl]pyridin-2-amine] | < 100
5 | Cc1cccnc1-c1nc2cc(Nc3cncc(N4C[C@@H](N)C[C@H]4CO)n3)ncc2s1 [Example 150, [(2S,4S)-4-Amino-1-(6-{[2-(3-methylpyridin-2-yl)-[1,3]thiazolo[5,4-c]pyridin-6-yl]amino}pyrazin-2-yl)pyrrolidin-2-yl]methanol] | < 100
6 | O[C@H]1CCN(c2nc3cc(Nc4ccc(C5CCOCC5)c(CN5CCCC5)n4)ncc3s2)C1 [Example 233, (3S)-1-(6-{[5-(Oxan-4-yl)-6-[(pyrrolidin-1-yl)methyl]pyridin-2-yl]amino}-[1,3]thiazolo[5,4-c]pyridin-2-yl)pyrrolidin-3-ol] | 100 to 1000
7 | CN1C[C@@H]2C[C@H]1CN2c1ccnc(Nc2cc3nc(-c4cccc(S(C)(=O)=O)c4)sc3cn2)n1 [Example 244, N-[2-(3-Methanesulfonylphenyl)-[1,3]thiazolo[5,4-c]pyridin-6-yl]-4-[(1S,4S)-5-methyl-2,5-diazabicyclo[2.2.1]heptan-2-yl]pyrimidin-2-amine] | 100 to 1000
8 | Cc1cccnc1-c1nc2cc(Nc3ccnc(N4C[C@@H]5C[C@H]4CN5)n3)ncc2s1 [Example 149, 2-[(1S,4S)-2,5-Diazabicyclo[2.2.1]heptan-2-yl]-N-[2-(3-methylpyridin-2-yl)-[1,3]thiazolo[5,4-c]pyridin-6-yl]pyrimidin-4-amine] | < 100
9 | Cc1cccnc1-c1nc2cc(Nc3ccc(N4CCC(F)(F)C4)c(N4CCCC4)n3)ncc2s1 [Example 280, 5-(3,3-Difluoropyrrolidin-1-yl)-N-[2-(3-methylpyridin-2-yl)-[1,3]thiazolo[5,4-c]pyridin-6-yl]-6-(pyrrolidin-1-yl)pyridin-2-amine] | 1000 to 5000
10 | Cc1cc(C)n(-c2nc3cc(Nc4ccc(N5CCOCC5)c(CN5CCCC5)n4)ncc3s2)n1 [Example 196, N-[2-(3,5-Dimethyl-1H-pyrazol-1-yl)-[1,3]thiazolo[5,4-c]pyridin-6-yl]-5-(morpholin-4-yl)-6-[(pyrrolidin-1-yl)methyl]pyridin-2-amine] | < 100
11 | Cc1ccc(Nc2cc3nc(-c4ncccc4C)sc3cn2)nc1CCN1CCCC1 [Example 62, 5-Methyl-N-[2-(3-methylpyridin-2-yl)-[1,3]thiazolo[5,4-c]pyridin-6-yl]-6-[2-(pyrrolidin-1-yl)ethyl]pyridin-2-amine] | 100 to 1000
12 | Cc1cccnc1-c1nc2cc(Nc3ccc(C4CCOCC4)c(N4C[C@@H]5C[C@H]4CN5C)n3)ncc2s1 [Example 247, 6-[(1S,4S)-5-Methyl-2,5-diazabicyclo[2.2.1]heptan-2-yl]-N-[2-(3-methylpyridin-2-yl)-[1,3]thiazolo[5,4-c]pyridin-6-yl]-5-(oxan-4-yl)pyridin-2-amine] | < 100
13 | c1cc(-c2nc3cc(Nc4ccc(C5CCOCC5)c(CN5CCOCC5)n4)ncc3s2)ccn1 [Example 219, 6-[(Morpholin-4-yl)methyl]-5-(oxan-4-yl)-N-[2-(pyridin-4-yl)-[1,3]thiazolo[5,4-c]pyridin-6-yl]pyridin-2-amine] | < 100

Further lines, results first:

Row | IC50 [nM] | Structure (SMILES)
14 | 100 to 1000 | Cc1cccnc1-c1nc2cc(Nc3cccc(N4C[C@H](C)N(C)[C@@H](C)C4)n3)ncc2s1 [Example 102, N-[2-(3-Methylpyridin-2-yl)-[1,3]thiazolo[5,4-c]pyridin-6-yl]-6-[(3S,5S)-3,4,5-trimethylpiperazin-1-yl]pyridin-2-amine]
15 | < 100 | Cc1cc(Nc2cc3nc(-c4ccnc(N)c4)sc3cn2)nc(O[C@H]2CCNC2)c1 [Example 170, N-[2-(2-Aminopyridin-4-yl)-[1,3]thiazolo[5,4-c]pyridin-6-yl]-4-methyl-6-[(3S)-pyrrolidin-3-yloxy]pyridin-2-amine]
16 | 100 to 1000 | Cc1ccc(Nc2cc3nc(-n4nccc4C)sc3cn2)nc1N1CCN(CCO)CC1 [Example 203, 2-[4-(3-Methyl-6-{[2-(5-methyl-1H-pyrazol-1-yl)-[1,3]thiazolo[5,4-c]pyridin-6-yl]amino}pyridin-2-yl)piperazin-1-yl]ethan-1-ol]
17 | < 100 | N#Cc1ccc(-c2nc3cc(Nc4ccc(N5CCOCC5)c(CN5CCCC5)n4)ncc3s2)cc1 [Example 21, 4-(6-{[5-(Morpholin-4-yl)-6-[(pyrrolidin-1-yl)methyl]pyridin-2-yl]amino}-[1,3]thiazolo[5,4-c]pyridin-2-yl)benzonitrile]
18 | < 100 | Cc1cccnc1-c1nc2cc(Nc3cnc(C)c(N4C[C@@H]5C[C@H]4CN5C)n3)ncc2s1 [Example 154, 5-Methyl-6-[(1S,4S)-5-methyl-2,5-diazabicyclo[2.2.1]heptan-2-yl]-N-[2-(3-methylpyridin-2-yl)-[1,3]thiazolo[5,4-c]pyridin-6-yl]pyrazin-2-amine]
19 | 100 to 1000 | Cc1cccnc1-c1nc2cc(Nc3nccc(N4C[C@@H]5C[C@H]4CN5)n3)ncc2s1 [Example 240, 4-[(1S,4S)-2,5-Diazabicyclo[2.2.1]heptan-2-yl]-N-[2-(3-methylpyridin-2-yl)-[1,3]thiazolo[5,4-c]pyridin-6-yl]pyrimidin-2-amine]
20 | < 100 | c1cc(C2CCOCC2)c(CN2CCCC2)nc1Nc1cc2nc(N3CCCCC3)sc2cn1 [Example 232, 5-(Oxan-4-yl)-N-[2-(piperidin-1-yl)-[1,3]thiazolo[5,4-c]pyridin-6-yl]-6-[(pyrrolidin-1-yl)methyl]pyridin-2-amine]

same assay, conditions: HPK1 ADP-Glo assay, low ATP (10 μM ATP, 2 nM HPK1); read-out: Biochemical Potency (low ATP)

Row | Structure (SMILES) | IC50 [nM]
21 | CN1C[C@@H]2C[C@H]1CN2c1cncc(Nc2cc3nc(-c4cccc(C(=O)N5CC[C@H](F)C5)c4)sc3cn2)n1 [Example 417] | < 100
22 | CN1C[C@@H]2C[C@H]1CN2c1nccc(Nc2cc3nc(N4CCc5cccnc5C4)sc3cn2)n1 [Example 428] | 100 to 1000
23 | CN1C[C@@H]2C[C@H]1CN2c1nccc(Nc2cc3nc(N4CCc5cnccc5C4)sc3cn2)n1 [Example 426] | 100 to 1000
24 | CC(C)(O)c1cccc(-c2nc3cc(Nc4cc(C5CCOCC5)nc(N5C[C@@H]6C[C@H]5CN6)n4)ncc3s2)c1 [Example 442] | < 100
25 | CN1C[C@@H]2C[C@H]1CN2c1nccc(Nc2cc3nc(-c4ccnc(N5CC[C@@H](F)C5)c4)sc3cn2)n1 [Example 461] | < 100
